In patent US20080194617A1, “Fused ring compound” (priority 2007, published 2008):

Biological target: T1, PPARγ-RXRα heterodimer (Homo sapiens, UniProt P37231)
T1 construct: expressed in transfected cells; host or cells: CHO-K1 (PPARγ:RXRα:4ERPP/CHO-K1)
T1 sequence (P37231 1-505): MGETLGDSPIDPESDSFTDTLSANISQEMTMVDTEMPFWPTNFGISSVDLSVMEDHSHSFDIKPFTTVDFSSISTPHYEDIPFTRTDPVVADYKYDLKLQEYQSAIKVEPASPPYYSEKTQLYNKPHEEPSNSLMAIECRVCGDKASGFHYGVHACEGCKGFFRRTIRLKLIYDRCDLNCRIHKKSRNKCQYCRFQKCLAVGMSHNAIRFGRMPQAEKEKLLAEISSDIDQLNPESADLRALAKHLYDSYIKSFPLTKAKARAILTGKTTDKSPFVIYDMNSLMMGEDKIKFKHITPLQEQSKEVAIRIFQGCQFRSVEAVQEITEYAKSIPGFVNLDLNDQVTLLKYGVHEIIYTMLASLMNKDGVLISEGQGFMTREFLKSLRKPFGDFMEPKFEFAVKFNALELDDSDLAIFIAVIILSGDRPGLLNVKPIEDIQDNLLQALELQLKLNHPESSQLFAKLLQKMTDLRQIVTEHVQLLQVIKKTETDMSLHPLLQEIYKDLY
T1 sequence (P19793 1-462 partner): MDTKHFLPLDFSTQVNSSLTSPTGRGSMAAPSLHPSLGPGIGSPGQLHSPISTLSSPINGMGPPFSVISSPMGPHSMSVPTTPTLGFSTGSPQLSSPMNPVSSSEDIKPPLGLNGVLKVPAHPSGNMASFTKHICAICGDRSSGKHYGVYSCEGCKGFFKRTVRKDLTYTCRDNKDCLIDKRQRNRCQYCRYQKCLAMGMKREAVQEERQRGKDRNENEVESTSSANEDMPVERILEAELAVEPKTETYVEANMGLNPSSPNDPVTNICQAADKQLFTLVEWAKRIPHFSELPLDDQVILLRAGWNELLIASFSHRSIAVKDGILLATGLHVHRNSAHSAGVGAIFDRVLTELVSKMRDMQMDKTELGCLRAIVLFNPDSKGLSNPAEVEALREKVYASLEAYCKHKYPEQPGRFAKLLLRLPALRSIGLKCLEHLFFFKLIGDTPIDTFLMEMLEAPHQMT
Assay: PPARγ-RXRα heterodimer ligand activity (luciferase reporter assay in PPARγ:RXRα:4ERPP/CHO-K1 cells)
Assay type: cell-based
Settings: incubated one day with test compound, luciferase induction rate, compound concentration showing 50% of the maximum value of induction rate
Procedure: The PPARγ:RXRα:4ERPP/CHO-K1 cells described in WO03/099793 were cultured in a Ham F12 medium [manufactured by Life Technologies, Inc., US] containing 10% calf fetal serum [manufactured by Life Technologies, Inc., US], sown in a 96-well white plate [manufactured by Corning Coster Corporation, US] at 1×10^4 cells/well, and incubated overnight in a carbon dioxide gas incubator at 37° C.
Then, the medium was removed from the 96 well white plate, 45 μl of Ham F12 medium containing 0.1% fatty acid-free bovine serum albumin (BSA) and a test compound (5 μl) were added, and the cells were incubated for one day in a carbon dioxide gas incubator at 37° C. The medium was removed, 20 μl of PicaGene 7.5 (manufactured by Wako Pure Chemical Industries, Ltd.) 2-fold diluted with HBSS (HANKS' BALANCED SALT SOLUTION) [manufactured by BIO WHITTAKER, US] was added. After stirring, the luciferase activity was determined using the 1420 ARVO Multilabel Counter [manufactured by PerkinElmer, US].
The induction rate was calculated from the luciferase activity of each test compound based on the luciferase activity of the test compound non-administration group as 1. The test compound concentration and the induction rate were analyzed by PRISM [manufactured by GraphPad Software, Inc., US] to calculate EC50 value (compound concentration showing 50% of the maximum value of induction rate) of the test compound.

| SMILES | EC50 [nM] |
| --- | --- |
| CCCCCS(=O)(=O)NC(=O)/C=C/c1c(C)nn(C)c1-c1cccc2cccnc12 [Example 24, (2E)-3-[1,3-dimethyl-5-(quinolin-8-yl)-1H-pyrazol-4-yl]-N-(pentylsulfonyl)acrylamide] | 54 |
| Cc1ccc(S(=O)(=O)NC(=O)/C=C/c2c(C)nn(C)c2-n2ccc3cccnc32)cc1 [Example 33, (2E)-3-[1,3-dimethyl-5-(1H-pyrrolo[2,3-b]pyridin-1-yl)-1H-pyrazol-4-yl]-N-[(4-methylphenyl)sulfonyl]acrylamide] | 88 |
| Cc1nn(C)c(-n2ccc3cc(Cl)cnc32)c1/C=C/C(=O)NS(=O)(=O)NCC1CC1 [Example 264, (2E)-3-[5-(5-chloro-1H-pyrrolo[2,3-b]pyridin-1-yl)-1,3-dimethyl-1H-pyrazol-4-yl]-N-{[(cyclopropylmethyl)amino]sulfonyl}acrylamide] | 26 |
| CCCCCS(=O)(=O)NC(=O)/C=C/c1c(C)nn(C)c1-n1ccc2cc(Cl)ccc21 [Example 27, (2E)-3-[5-(5-chloro-1H-indol-1-yl)-1,3-dimethyl-1H-pyrazol-4-yl]-N-(pentylsulfonyl)acrylamide] | 6.1 |
| CCCCNS(=O)(=O)NC(=O)/C=C/c1c(C)nn(C)c1-n1ccc2cc(Cl)ccc21 [Example 99, (2E)-N-[(butylamino)sulfonyl]-3-[5-(5-chloro-1H-indol-1-yl)-1,3-dimethyl-1H-pyrazol-4-yl]acrylamide] | 24 |
| CCCCOC(=O)NS(=O)(=O)CCc1c(C)nn(C)c1-n1ccc2cc(C(F)(F)F)cnc21 [Example 295, butyl [(2-{1,3-dimethyl-5-[5-(trifluoromethyl)-1H-pyrrolo[2,3-b]pyridin-1-yl]-1H-pyrazol-4-yl}ethyl)sulfonyl]carbamate] | 22 |
| CCCCCS(=O)(=O)NC(=O)/C=C/c1c(C)nn(C)c1-n1ccc2ccc(C(F)(F)F)cc21 [Example 31, potassium ((2E)-3-{1,3-dimethyl-5-[6-(trifluoromethyl)-1H-indol-1-yl]-1H-pyrazol-4-yl}prop-2-enoyl)(pentylsulfonyl)azanide] | 5.5 |
| CCCCOC(=O)NS(=O)(=O)CCc1c(C(F)(F)F)nn(C)c1-n1ccc2cc(Cl)cnc21 [Example 197, butyl ({2-[5-(5-chloro-1H-pyrrolo[2,3-b]pyridin-1-yl)-1-methyl-3-(trifluoromethyl)-1H-pyrazol-4-yl]ethyl}sulfonyl)carbamate] | 86 |
| CCCCCS(=O)(=O)NC(=O)NCCCc1c(C)nn(C)c1-n1ccc2cc(Cl)ccc21 [Example 82, N-[({3-[5-(5-chloro-1H-indol-1-yl)-1,3-dimethyl-1H-pyrazol-4-yl]propyl}amino)carbonyl]pentane-1-sulfonamide] | 67 |
| Cc1nn(C)c(-n2ccc3cc(Cl)ccc32)c1CCS(=O)(=O)NC(=O)OCC1CC1 [Example 189, cyclopropylmethyl ({2-[5-(5-chloro-1H-indol-1-yl)-1,3-dimethyl-1H-pyrazol-4-yl]ethyl}sulfonyl)carbamate] | 54 |
| CCCCCS(=O)(=O)NC(=O)CCc1c(C)nn(C)c1N1CCc2cccnc21 [Example 40, 3-[5-(2,3-dihydro-1H-pyrrolo[2,3-b]pyridin-1-yl)-1,3-dimethyl-1H-pyrazol-4-yl]-N-(pentylsulfonyl)propanamide] | 12 |
| CCCCS(=O)(=O)NC(=O)/C=C/c1c(C)nn(C)c1-n1ccc2cc(Cl)cnc21 [Example 283, (2E)-N-(butylsulfonyl)-3-[5-(5-chloro-1H-pyrrolo[2,3-b]pyridin-1-yl)-1,3-dimethyl-1H-pyrazol-4-yl]acrylamide] | 14 |
| CCCCCS(=O)(=O)NC(=O)/C=C/c1c(C)nn(C)c1-n1ccc2ccccc21 [Example 7, potassium {(2E)-3-[5-(1H-indol-1-yl)-1,3-dimethyl-1H-pyrazol-4-yl]prop-2-enoyl}(pentylsulfonyl)azanide] | 39 |
| CCCCCS(=O)(=O)NC(=O)/C=C/c1c(C)nn(C)c1-c1csc2ccccc12 [Example 6, (2E)-3-[5-(1-benzothien-3-yl)-1,3-dimethyl-1H-pyrazol-4-yl]-N-(pentylsulfonyl)acrylamide] | 19 |
| CCCCCNS(=O)(=O)NC(=O)/C=C/c1c(C)nn(C)c1-n1ccc2cc(Cl)ccc21 [Example 62, (2E)-3-[5-(5-chloro-1H-indol-1-yl)-1,3-dimethyl-1H-pyrazol-4-yl]-N-[(pentylamino)sulfonyl]acrylamide] | 37 |
| CCCCCS(=O)(=O)NC(=O)/C=C/c1c(C)nn(C)c1-n1ccc2cccnc21 [Example 9, (2E)-3-[1,3-dimethyl-5-(1H-pyrrolo[2,3-b]pyridin-1-yl)-1H-pyrazol-4-yl]-N-(pentylsulfonyl)acrylamide] | 64 |
| Cc1nn(C)c(-n2ccc3cc(Cl)ccc32)c1/C=C1\SC(=O)NC1=O [Example 84, (5Z)-5-{[5-(5-chloro-1H-indol-1-yl)-1,3-dimethyl-1H-pyrazol-4-yl]methylene}-1,3-thiazolidine-2,4-dione] | 220 |
| CCCCNC(=O)NS(=O)(=O)CCc1c(C2CC2)nn(C)c1-n1ccc2cc(Cl)cnc21 [Example 279, N-[(butylamino)carbonyl]-2-[5-(5-chloro-1H-pyrrolo[2,3-b]pyridin-1-yl)-3-cyclopropyl-1-methyl-1H-pyrazol-4-yl]ethanesulfonamide] | 60 |
| CCCCNC(=O)NS(=O)(=O)CCc1c(C)nn(C)c1-n1ccc2cc(C(F)(F)F)cnc21 [Example 294, N-[(butylamino)carbonyl]-2-{1,3-dimethyl-5-[5-(trifluoromethyl)-1H-pyrrolo[2,3-b]pyridin-1-yl]-1H-pyrazol-4-yl}ethanesulfonamide] | 32 |
| CCCCCS(=O)(=O)NC(=O)/C=C/c1c(C)nn(C)c1-n1ccc2cc(C)cnc21 [Example 232, (2E)-3-[1,3-dimethyl-5-(5-methyl-1H-pyrrolo[2,3-b]pyridin-1-yl)-1H-pyrazol-4-yl]-N-(pentylsulfonyl)acrylamide] | 15 |
| CCCCCS(=O)(=O)NC(=O)OCCc1c(C)nn(C)c1-n1ccc2cc(Cl)ccc21 [Example 66, 2-[5-(5-chloro-1H-indol-1-yl)-1,3-dimethyl-1H-pyrazol-4-yl]ethyl (pentylsulfonyl)carbamate] | 22 |
| Cc1nn(C)c(-n2ccc3cc(Cl)ccc32)c1/C=C/C(=O)NS(=O)(=O)c1ccco1 [Example 55, (2E)-3-[5-(5-chloro-1H-indol-1-yl)-1,3-dimethyl-1H-pyrazol-4-yl]-N-(2-furylsulfonyl)acrylamide] | 44 |
